These are literature values, as cited in patent US10265413B2, “High molecular weight biodegradable gelatin-doxorubicin conjugate” (priority 2014, dated 2019).

For this data set the following is noted: cumulative doses.

Consider `COc1cccc2c1C(=O)c1c(O)c3c(c(O)c1C2=O)C[C@@](O)(C(=O)CO)C[C@@H]3O[C@H]1C[C@H](N)[C@H](O)[C@H](C)O1` [DOX, (7S,9S)-7-[(2R,4S,5S,6S)-4-amino-5-hydroxy-6-methyloxan-2-yl]oxy-6,9,11-trihydroxy-9-(2-hydroxyacetyl)-4-methoxy-8,10-dihydro-7H-tetracene-5,12-dione], for which the “cumulative dose above which irreversible cardiomyopathy occurs” value is given as greater than 550 mg/m^2.
